Laboratory results as given in PMC9760430, “A stapled chromogranin A-derived peptide homes in on tumors that express αvβ6 or αvβ8 integrins” (International Journal of Biological Sciences, 2023).
Peptide text beside a SMILES is read from it. * marks the point of attachment. X1 = CC1(C)C(/C=C/C2=C(Oc3ccc(S(=O)(=O)O)cc3)C(=C\C=C3/N(CCCCCC(=O)NCCN4C(=O)CC(*)C4=O)c4ccc(S(=O)(=O)O)cc4C3(C)C)/CCC2)=[N+](CCCCS(=O)(=O)O)c2ccc(S(=O)(=O)[O-])cc21

What was measured:
Human αvβ6 = biological target: T1, Human αvβ6 (Homo sapiens, UniProt P06756+P18564); test: direct integrin binding assay of peptide-IRDye conjugates, human αvβ6-coated plates; settings: plates coated with recombinant human αvβ6; conjugate 0.01-100 nM, 1 h; bound NIR fluorescence (Odyssey CLx); mean ± SE, n = 2 experiments
T1 construct: purchased Bio-Techne
Procedure: (§1) The affinity of peptide-IRDye conjugates for αvβ6 and αvβ8 integrins was determined by a direct binding assay using microtiter plates coated with αvβ6 or αvβ8 (Bio-Techne). After 1 h of incubation, the plates were washed; bound fluorescence was quantified by scanning the plates with an Odyssey CLx near-infrared fluorescence imaging system (LI-COR). […]
(§2) The simplified molecular-input line-entry system (SMILES) of 5a-, 2a-, Cys- and 5a-Scr- […]
(§3) The concentration of each conjugate was quantified by spectrophotometric analysis at 774 nm (molar absorption coefficient, 240,000 M-1, cm-1) (Figure S3B). The final yield of 5a-IRDye […]
(§4) Binding of peptide-IRDye conjugates to avb6 and avb8 integrin
(§5) The binding affinity of peptide-IRDye conjugates for human and murine avb6 and avb8 integrins was determined as follows: 96-well clear-bottom black microtiter plates (Corning® cat. 3601) were coated with 2 μg/ml avb6 or avb8 (50 µl/well), in Dulbecco’s phosphate-buffered saline containing Ca2+ and Mg2+ (DPBS) and left to incubate overnight at 4°C. […]
(§6) conjugates were added to the microtiterplates and incubated at room temperature for 1 h (see Experimental Section). After washing, bound fluorescence was measured using an Odyssey CLx (LI-COR) scanner. Representative images of the scanned plates and quantification of binding are shown. […]

Human αvβ8 = biological target: T2, Human αvβ8 (Homo sapiens, UniProt P06756+P26012); test: direct integrin binding assay of peptide-IRDye conjugates, human αvβ8-coated plates; settings: plates coated with recombinant human αvβ8; conjugate 0.01-100 nM, 1 h; bound NIR fluorescence; mean ± SE, n = 2 experiments
T2 construct: purchased Bio-Techne
Procedure: as §1, §2, §3, §4, §5, §6

T2 sequence (P06756 31-992 limits assumed): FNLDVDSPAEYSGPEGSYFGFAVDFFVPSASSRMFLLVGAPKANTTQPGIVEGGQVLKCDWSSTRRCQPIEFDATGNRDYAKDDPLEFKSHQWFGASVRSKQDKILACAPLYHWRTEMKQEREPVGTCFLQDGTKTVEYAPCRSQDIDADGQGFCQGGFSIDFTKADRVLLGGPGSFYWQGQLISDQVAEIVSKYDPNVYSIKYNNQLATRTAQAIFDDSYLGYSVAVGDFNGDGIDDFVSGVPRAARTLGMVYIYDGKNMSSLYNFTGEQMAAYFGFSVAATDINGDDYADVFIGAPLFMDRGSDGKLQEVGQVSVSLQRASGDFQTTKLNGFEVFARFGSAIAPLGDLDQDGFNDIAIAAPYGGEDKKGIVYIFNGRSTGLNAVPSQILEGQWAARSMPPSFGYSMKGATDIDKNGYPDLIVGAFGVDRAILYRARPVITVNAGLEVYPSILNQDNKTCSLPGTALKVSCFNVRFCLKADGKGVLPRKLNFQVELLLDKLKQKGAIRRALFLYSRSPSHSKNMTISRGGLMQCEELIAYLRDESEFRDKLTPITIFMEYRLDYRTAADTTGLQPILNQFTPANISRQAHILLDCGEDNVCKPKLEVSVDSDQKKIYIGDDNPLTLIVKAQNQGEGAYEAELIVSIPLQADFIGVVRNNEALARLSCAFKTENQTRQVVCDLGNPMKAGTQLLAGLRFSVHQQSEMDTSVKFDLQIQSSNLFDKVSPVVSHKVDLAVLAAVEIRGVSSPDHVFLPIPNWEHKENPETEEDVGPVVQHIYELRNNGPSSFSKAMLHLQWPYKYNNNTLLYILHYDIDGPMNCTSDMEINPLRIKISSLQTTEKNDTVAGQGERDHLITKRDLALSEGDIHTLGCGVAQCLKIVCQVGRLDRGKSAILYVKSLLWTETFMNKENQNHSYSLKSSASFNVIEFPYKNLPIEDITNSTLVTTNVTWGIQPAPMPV
T2 sequence (P26012 43-684 limits assumed): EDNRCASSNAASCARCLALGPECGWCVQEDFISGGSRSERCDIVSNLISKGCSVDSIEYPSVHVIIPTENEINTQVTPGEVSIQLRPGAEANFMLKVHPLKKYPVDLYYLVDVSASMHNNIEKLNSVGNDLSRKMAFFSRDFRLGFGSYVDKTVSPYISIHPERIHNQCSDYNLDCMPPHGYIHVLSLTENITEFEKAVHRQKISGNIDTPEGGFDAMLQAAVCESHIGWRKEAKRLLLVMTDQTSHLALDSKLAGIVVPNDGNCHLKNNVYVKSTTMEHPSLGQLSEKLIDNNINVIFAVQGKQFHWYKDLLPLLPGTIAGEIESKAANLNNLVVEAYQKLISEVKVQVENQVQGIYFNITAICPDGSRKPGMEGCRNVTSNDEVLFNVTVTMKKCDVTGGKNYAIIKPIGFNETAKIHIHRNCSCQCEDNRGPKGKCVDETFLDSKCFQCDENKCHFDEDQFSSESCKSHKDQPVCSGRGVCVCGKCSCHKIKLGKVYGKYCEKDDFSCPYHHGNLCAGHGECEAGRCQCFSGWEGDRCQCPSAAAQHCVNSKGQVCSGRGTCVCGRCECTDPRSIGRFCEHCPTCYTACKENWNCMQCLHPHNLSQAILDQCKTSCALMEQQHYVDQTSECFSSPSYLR
T1 sequence (P06756 31-992 limits assumed): as the sequence (P06756 31-992 limits assumed) above
T1 sequence (P18564 22-707 limits assumed): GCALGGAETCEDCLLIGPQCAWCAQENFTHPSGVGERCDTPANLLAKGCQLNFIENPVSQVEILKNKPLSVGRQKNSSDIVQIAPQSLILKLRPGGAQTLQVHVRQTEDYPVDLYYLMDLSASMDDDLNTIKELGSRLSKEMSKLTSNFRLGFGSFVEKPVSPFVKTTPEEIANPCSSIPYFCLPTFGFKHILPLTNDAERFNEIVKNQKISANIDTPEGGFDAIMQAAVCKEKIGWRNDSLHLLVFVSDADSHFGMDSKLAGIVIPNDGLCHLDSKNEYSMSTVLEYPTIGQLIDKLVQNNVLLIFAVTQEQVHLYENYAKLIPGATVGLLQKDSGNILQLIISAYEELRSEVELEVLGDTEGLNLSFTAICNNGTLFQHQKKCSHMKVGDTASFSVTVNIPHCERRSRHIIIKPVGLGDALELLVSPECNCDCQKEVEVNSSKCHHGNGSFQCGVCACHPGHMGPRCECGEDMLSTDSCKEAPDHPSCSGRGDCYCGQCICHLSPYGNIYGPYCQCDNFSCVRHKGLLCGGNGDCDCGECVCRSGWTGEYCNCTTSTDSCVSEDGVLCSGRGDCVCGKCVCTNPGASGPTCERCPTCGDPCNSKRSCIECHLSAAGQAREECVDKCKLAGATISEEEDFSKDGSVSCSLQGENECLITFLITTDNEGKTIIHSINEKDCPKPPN

EC50 (Human αvβ6) [nM] | EC50 (Human αvβ8) [nM] | SMILES
> 100 | > 100 | CC1(C)C(/C=C/C2=C(Oc3ccc(S(=O)(=O)O)cc3)C(=C\C=C3/N(CCCCCC(=O)NCCN4C(=O)CC(SC[C@H](N)C(=O)O)C4=O)c4ccc(S(=O)(=O)O)cc4C3(C)C)/CCC2)=[N+](CCCCS(=O)(=O)O)c2ccc(S(=O)(=O)[O-])cc21 (stereo partly shown) [Cys-IRDye]
> 100 | > 100 | CC[C@H](C)[C@H](NC(=O)[C@H](CCCNC(=N)N)NC(=O)[C@H](CCC(=O)O)NC(=O)[C@H](CCC(=O)O)NC(=O)CNC(=O)[C@H](CCCNC(=N)N)NC(=O)[C@H](CC(C)C)NC(=O)[C@@H](NC(=O)[C@H](CCC(=O)O)NC(=O)[C@H](Cc1ccccc1)NC(=O)[C@@H](N)CSC1CC(=O)N(CCNC(=O)CCCCCN2/C(=C\C=C3\CCCC(/C=C/C4=[N+](CCCCS(=O)(=O)O)c5ccc(S(=O)(=O)[O-])cc5C4(C)C)=C3Oc3ccc(S(=O)(=O)O)cc3)C(C)(C)c3cc(S(=O)(=O)O)ccc32)C1=O)[C@@H](C)O)C(=O)N[C@@H](CC(C)C)C(=O)N[C@@H](CO)C(=O)N[C@H](C(=O)N[C@@H](CC(C)C)C(=O)N[C@@H](CCCNC(=N)N)C(=O)N[C@@H](Cc1c[nH]cn1)C(=O)N[C@@H](CCC(N)=O)C(=O)N[C@@H](CC(N)=O)C(=O)N[C@@H](CC(C)C)C(=O)N[C@@H](CC(C)C)C(=O)N[C@@H](CCCCN)C(=O)N[C@@H](CCC(=O)O)C(=O)N[C@@H](CC(C)C)C(=O)N[C@@H](CCC(N)=O)C(=O)N[C@@H](CC(=O)O)C(N)=O)[C@@H](C)CC (stereo partly shown) [2a-IRDye] (H-C(X1)FETLRGEERILSILRHQNLLKELQD-NH2)
